Assay results from patent publication US4203990A, “Anti-diarrheal 2-substituted quinuclidines” (G. D. Searle & Co., priority 1979, dated 1980).

How the values were obtained:
[1] = system: gastrointestinal propulsive motility; assay: Mouse Cecal Test (charcoal in cecum, inhibition of gastrointestinal propulsive motility); assay type: in vivo, male Charles River mice; conditions: oral/IG, test compound 30 min before charcoal, cecum examined 3.5 h after charcoal, logistic method of Berkson
Source text: The present compounds are potent anti-diarrheal agents as evidenced by their ability to inhibit gastrointestinal propulsive motility as set forth in the following tests:
The method used for this assay is a modification of the techniques previously described by Macht and Barba-Gose, J. Amer. Pharm. Ass., 20, 558 (1931), and Janssen and Jageneau, J. Pharm. Pharmacol., 9, 381 (1957). Details are as follows:
A group of six, male Charles River mice weighing 20-25 g. which have been previously fasted for 24 hours are pretreated with the test compounds administered orally as a solution in water or suspended in 0.5% methyl cellulose. A constant volume of 10 ml./kg. is employed. Thirty minutes following administration of the test compounds, the animals are given a single oral dose of charcoal which consists of 0.2 ml. per mouse of 10% charcoal suspended in 1.0% methyl cellulose. Three and a half hours after charcoal administration, the animals are sacrificed and the cecum examined for the absence or presence of charcoal on an all-or-none basis.
The median effective dose (ED50) is then calculated for each compound using the logistic method of Berkson (1953).

[2] = system: castor oil-induced diarrhea; assay: Castor Oil-Induced Diarrhea in the Rat; assay type: in vivo, Charles River male rats; conditions: po, intragastric, 1 h before castor oil (1.0 ml per rat), at 2 hours past castor oil, method of Berkson
Protocol: Adult Charles River male rats are fasted in community cages for 24 hours prior to the test, with free access to water. The test compound is then administered intragastrically (suspended on 0.5% methyl cellulose) one hour prior to the intragastric administration of a dose of 1.0 ml. castor oil per rat. The rats are then observed for the presence or absence of diarrhea at hourly intervals for up to 8 hours past the castor oil administration. Using the method of Berkson (1953), the median effective dose (ED50) values are calculated at each hourly interval for the test compound.
The median effective dose at 2 hours past the castor oil administration for the following representative compound of the present invention in the castor oil-induced diarrhea in the Rat test is: […]

| Structure (SMILES) | ED50 [1] [mg/kg] | ED50 [2] [mg/kg] |
| --- | --- | --- |
| Cc1nnc(C(CC2CC3CCN2CC3)(c2ccccc2)c2ccccc2)o1.Cl (stereo not shown) [2-[2-(5-methyl-1,3,4-oxadiazol-2-yl)-2,2-diphenylethyl]-1-azabicyclo[2.2.2]octane hydrochloride] | 4.4 ± 1.3 |  |
| Cl.c1ccc(C(CC2CC3CCN2CC3)(c2ccccc2)c2ccccc2)cc1 (stereo not shown) [2-(2,2,2-triphenylethyl)-1-azabicyclo[2.2.2] octane hydrochloride] | 0.9 ± 0.2 | 0.2 ± 0.05 |
| Cl.c1ccc(C(CC2CC3CCN2CC3)(c2ccccc2)c2ccccn2)cc1 (stereo not shown) [2-[2,2-diphenyl-2-(2-pyridyl)ethyl]-1-azabicyclo[2.2.2]octane hydrochloride] | 18.1 ± 10.3 |  |
